# Laboratory results reported in patent US5948780A, “Method for treating and preventing heart failure and ventricular dilatation” (priority 1997, dated 1999).
# Read-outs that look alike come from different tables or passages of the source.
# Assays:
# MMPs = assay: MMP inhibition at trough plasma level in pigs; conditions: 20 mg/kg/day oral
# in vivo = assay: in vivo; set-up: species or system Yorkshire pigs; conditions: pig, po, 10 mg/kg
# Description: In a similar study, three Yorkshire pigs (22-25 kg, male, Hambone Farms, S.C.) were chronically instrumented in order to measure arterial blood pressure in the conscious state. The pigs were anesthetized with isoflurane (3%/1.5 L/min) and a mixture of nitrous oxide and oxygen (50:50), intubated with a cuffed endotracheal tube and ventilated at a flow rate of 22 mL/kg/minute, and a respiratory rate of 15/minute. A left thoracotomy was performed, and the thoracic aorta at the location of the hemi-azygous crossover exposed. A catheter connected to a vascular process port (Model GPV, 9F, Access Technologies, Skokie, Ill.) was placed in the aorta and sutured in place. The access port was buried in a subcutaneous pocket over the thoracolumbar fascia. Following a recovery period of 7 to 10 days, the animal was returned to the laboratory for baseline studies. […] The vascular access port was entered using a 12-gauge Huber needle (Access Technologies, Skokie, Ill.) and basal, resting arterial pressure and heart rate were recorded. […]
# The MMP inhibitor chosen for these studies was Compound A as above. […] Plasma levels of the MMP inhibitor were determined by the degree of hydrolysis of the MMP substrate thiopeptolide Ac-Pro-Leu-Gly-thioester-Leu-Leu-Gly=OEt. […]
# gelatinases = assay: plasma MMP inhibitory activity (thiopeptolide hydrolysis), gelatinases; type: biochemical; conditions: plasma after 10 mg/kg oral administration
# Description: (§1) The MMP inhibitor chosen for these studies was Compound A as above. A single oral dose of 10 mg/kg of Compound A was administered in one pig, and a second pig was simultaneously administered a single 10 mg/kg dose of the MMP inhibitor intravenously. Plasma samples were serially collected from the chronically placed arterial access ports. Plasma levels of the MMP inhibitor were determined by the degree of hydrolysis of the MMP substrate thiopeptolide Ac-Pro-Leu-Gly-thioester-Leu-Leu-Gly=OEt. […] A pharmacokinetic profile was constructed using these initial data, and it was predicted that an oral delivery of 20 mg/kg/day of Compound A would provide significant MMP plasma inhibitory activity at trough levels. Accordingly, the 3 pigs underwent 20 mg/kg QD-AM of treatment with Compound A for 5 days. In order to confirm adequate MMP inhibitory activity, plasma was collected prior to the AM dose with each day of treatment. […] Thus, a practical dosing regiment of Compound A was established which provided stable plasma MMP inhibitory activity in the animal model to be used in the present study.
# [1] = system: catalytic domain of stromelysin; assay: plasma MMP inhibitory activity (thiopeptolide hydrolysis), stromelysin; type: biochemical; conditions: plasma after 10 mg/kg oral administration
# Description: as §1
# MMP = MMP inhibitory activity of plasma from treated pigs, artificial MMP substrate; type: biochemical
# Description: as §1
# [2] = system: chronic rapid pacing heart failure model; assay: LV geometry, LV function and systemic hemodynamics with chronic rapid pacing (Table III); type: in vivo, pig; conditions: Rapid Pacing + MMPi, 20 mg/kg QD, 3 weeks, mean ± SEM
# Description: Pacemakers were implanted or sham procedures performed with the animals anesthetized as described in the preceding section. In addition to the placement of the aortic access port, a shielded stimulating electrode was sutured onto the left atrium, connected to a modified programmable pacemaker (8329, Medtronic, Inc., Minneapolis, Minn.), and buried in a subcutaneous pocket. The pericardium was approximated, the thoracotomy closed, and the pleural space evacuated of air. Ten to 14 days following recovery from the surgical procedure, baseline studies were performed, and the protocols described above were begun. Cardiac auscultation and an electrocardiogram were performed frequently during the pacing protocol in order to ensure proper operation of the pacemaker and the presence of 1:1 conduction. In this porcine preparation, atrio-ventricular conduction can be maintained at this pacing rate and therefore provide a homogeneous pattern of ventricular myocardial electrical activation. The sham operated controls were cared for in identical fashion with the exception of the pacing protocol. All animals were treated and cared for in accordance with the National Institutes of Health "Guide for the Care and Use of Laboratory Animals" (National Research Council, Washington, 1996).
# LV size and function were measured at weekly intervals in all of the pigs undergoing rapid pacing. For these studies, the animals were brought to the laboratory and the pacemaker deactivated. All measurements were performed at an ambient resting heart rate within 30 to 40 minutes following pacemaker deactivation. Two-dimensional and M-mode echocardiographic studies (ATL Ultramark VI, 2.25 MHz transducer, Bothell, Wash.) were used to image the LV from a right parasternal approach. LV fractional shortening was calculated as ([…])/end-diastolic dimension and was expressed as a percent. Peak circumferential global average wall stress was computed using a spherical model of reference: σ(gm/cm^2)=(PD/4h(1+h/D))×1.36; where P=aortic systolic pressure measured from the access port, D=minor axis dimension at end-diastole, and h=wall thickness. The mean velocity of circumferential fiber shortening (Vcf) was calculated using the LV echocardiographic dimension measurements and the arterial pressure trace. The LV ejection time, used in the calculation of Vcf, was rate-corrected to a heart rate of 60 bpm by […] by the square root of the RR interval.
# plasma neurohormones = plasma neurohormones with chronic rapid pacing (Table III); type: in vivo, pig; conditions: Rapid Pacing + MMPi, 20 mg/kg QD, 3 weeks, mean ± SEM
# Description: Following steady-state LV function measurements, 35 cc of blood was drawn from the arterial access port into chilled tubes containing EDTA (1.5 mg/mL). The blood samples were immediately centrifuged (2000 g, 10 min, 4° C.), the plasma decanted into separate tubes, frozen in a dry ice/methanol bath, and stored at -80° C. until the time of assay.
# The plasma samples were assayed for renin activity, catecholamine levels, and plasma MMP inhibition levels. Plasma renin activity (PRA) was determined by computing angiotensin I production using a radioimmunoassay (NEA-026, New England Nuclear, Boston, Mass.). Plasma norepinephrine was measured using high-performance liquid chromatography and normalized to pg/mL of plasma. All assays were performed in duplicate.
# For comparisons of neurohormonal profiles, the Student-Neuman-Kuells test was employed. […] Values of p<0.05 were considered to be statistically significant.
# [3] = plasma levels of Compound A in MI-rat; type: in vivo; conditions: po, read-out: Plasma Level
# Description: Drugs were administered in chow such that the investigators were blinded to group assignment. A biweekly record of health status, body weight, and food consumption was maintained.
# Dosing began at 2 weeks post-MI and continued for 6 weeks.
# The isoflurane level was then increased to 2%; the Millar was removed from the carotid and replaced with a PE-50 cannula. A 5 mL blood sample was taken using the PE-50 cannula and an ice-cold syringe. Blood was then put into an ice-cold EDTA tube, and centrifuged at 5000 RPM for 10 minutes at 4° C. Plasma was aliquoted, then stored at -80° C. until assays were performed to assess plasma drug levels and other factors.
smiles,measurement,setting,value
"CC(C)C(NS(=O)(=O)c1ccc(-c2ccc(Br)cc2)cc1)C(=O)O (centres unmarked) [Compound A, 2-(4'-bromobiphenyl-4-sulfonylamino)-3-methylbutyric acid]",inhibition of MMPs at trough level,MMPs,a level great enough to inhibit all MMPs tested
same,bioavailability at 4 h,in vivo,~100%
same,reduction in activity against the gelatinases,gelatinases,~50%
same,reduction in activity against the catalytic domain of stromelysin,[1],~50%
same,plasma MMP inhibitory activity,"MMP; pig, 20 mg/kg QD for 5 days, pre-dose plasma",significant plasma MMP inhibitory activity was observed
same,reduction of in vitro MMP activity by plasma,"MMP; plasma after 3 days of treatment, 20 mg/kg QD, artificial MMP substrate",over 100%
same,End-Diastolic Dimension,[2],4.7 ± 0.2 cm
same,Fractional Shortening,[2],26 ± 3%
same,Heart Rate,[2],149 ± 3 bpm
same,Mean Arterial Pressure,[2],83 ± 2 mmHg
same,Peak Wall Stress,[2],185 ± 11 g/cm^2
same,Vcf (velocity of circumferential fiber shortening),[2],1.4 ± 0.2 s⁻¹
same,Vcfc (velocity of circumferential fiber shortening corrected for heart rate),[2],2.3 ± 0.2 s⁻¹
same,Wall Thickness,[2],0.80 ± 0.22 CM
same,Norepinephrine,plasma neurohormones,1073 ± 241 pg/mL
same,Renin Activity,plasma neurohormones,10.4 ± 1.1 ng/mL/h
same,concentration at 1008 h,[3]; 0.005 mg/kg/day in chow,2 ± 1 µM
same,concentration at 1008 h,[3]; 0.05 mg/kg/day in chow,16 ± 4 µM
same,concentration at 1008 h,[3]; 0.5 mg/kg/day in chow,55 ± 3 µM
same,concentration at 1008 h,[3]; 5 mg/kg/day in chow,201 ± 7 µM
